Test results published in PubChem BioAssay (NCI).
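Interpolation was linear, between the two tested concentrations surrounding the appropriate level; five concentrations were tested over 48 hours in 96-well plates. GI50 = concentration required for 50% inhibition of growth. TGI: total growth inhibition.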

How the values were obtained:
Experiment in all cases: NCI-60 cell line screen, 48 h
CAKI-1 renal = system: CAKI-1 renal
HOP-62 NSCLC = system: HOP-62 NSCLC
HT29 colon = system: HT29 colon
K-562 leukemia = system: K-562 leukemia
NCI-H23 lung = system: NCI-H23 lung
RXF 393 renal = system: RXF 393 renal
SF-268 CNS = system: SF-268 CNS
SK-MEL-5 melanoma = system: SK-MEL-5 melanoma
SN12C renal = system: SN12C renal
SW-620 colon = system: SW-620 colon

Compound | GI50 (CAKI-1 renal) [µM] | TGI (CAKI-1 renal) [µM] | GI50 (HOP-62 NSCLC) [µM] | TGI (HOP-62 NSCLC) [µM] | GI50 (HT29 colon) [µM] | GI50 (K-562 leukemia) [µM] | TGI (K-562 leukemia) [µM] | GI50 (NCI-H23 lung) [µM] | TGI (NCI-H23 lung) [µM] | GI50 (RXF 393 renal) [µM] | TGI (RXF 393 renal) [µM] | GI50 (SF-268 CNS) [µM] | TGI (SF-268 CNS) [µM] | GI50 (SK-MEL-5 melanoma) [µM] | TGI (SK-MEL-5 melanoma) [µM] | GI50 (SN12C renal) [µM] | TGI (SN12C renal) [µM] | GI50 (SW-620 colon) [µM] | TGI (SW-620 colon) [µM] | TGI (HT29 colon) [µM]
C=CC(=O)Nc1cc(C)ccc1Nc1nc(Nc2cc(OC)ncc2C)ncc1C(F)(F)F | 0.514 | 1.84 | 0.741 | > 66.7 | 0.122 | 2.56 | > 100 | 0.635 | > 22.9 | 0.352 | 1.85 | 1.28 | > 100 | 1.77 | 5.42 | 0.714 | > 100 | 0.322 | 3.23 | –
Cn1cnc([N+](=O)[O-])c1Sc1nc(N)nc2c1ncn2C1CC(O)C(CO)O1 (stereo not drawn) | – | > 100 | – | > 100 | – | – | > 100 | – | > 55 | – | > 100 | – | > 100 | – | 22.9 | – | > 100 | – | > 100 | > 100
O=C(O)CCC(N=Cc1nc(-c2ccccc2)oc1O)C(=O)O (stereo not drawn) | – | > 100 | – | > 100 | – | – | > 100 | – | > 100 | – | > 100 | – | > 100 | – | > 100 | – | > 100 | – | > 100 | > 100
c1ccc(CN2COc3c(ccc4c3OCN(Cc3ccccc3)C4)C2)cc1 | 0.22 | – | 0.545 | > 100 | 0.955 | 0.445 | > 100 | 3.68 | > 100 | 0.41 | > 100 | 0.605 | > 35.6 | 0.501 | 2.04 | 0.559 | > 100 | 0.494 | > 100 | > 100
Cc1csc(/C=C/C(=O)c2nnn(-c3ccnc4c(C(F)(F)F)cccc34)c2C)c1 | 42.4 | > 100 | > 100 | > 100 | 27 | 23 | > 100 | 48.9 | > 100 | > 100 | > 100 | 25.8 | > 100 | 17.9 | 57 | 25 | > 100 | > 100 | > 100 | > 100
CC1CCCC(C(O)CC2CC(=O)NC(=O)C2)C1O (stereo not drawn) | – | > 100 | – | > 100 | – | – | > 100 | – | > 100 | – | > 100 | – | > 100 | – | > 100 | – | > 100 | – | > 100 | > 100
O=C(COc1cc(O)c2c(=O)cc(-c3ccccc3)oc2c1)Nc1ccccc1C(F)(F)F | 3.74 | 18.7 | 2.62 | 8.19 | 6.48 | 5.03 | > 100 | 3.07 | 11.6 | 2.21 | 6.34 | 4.94 | 26.1 | 4.1 | 25.4 | 4.02 | > 100 | 3.56 | > 100 | > 100
